Assay results taken from ChEMBL document CHEMBL1145887, “Large dimeric ligands with favorable pharmacokinetic properties and peroxisome proliferator-activated receptor agonist activity in vitro and in vivo” (J Med Chem, 2003).

What was measured:
[1] = target: T1, Peroxisome proliferator-activated receptor gamma (Homo sapiens, UniProt P37231)
T1 sequence (P37231 whole entry): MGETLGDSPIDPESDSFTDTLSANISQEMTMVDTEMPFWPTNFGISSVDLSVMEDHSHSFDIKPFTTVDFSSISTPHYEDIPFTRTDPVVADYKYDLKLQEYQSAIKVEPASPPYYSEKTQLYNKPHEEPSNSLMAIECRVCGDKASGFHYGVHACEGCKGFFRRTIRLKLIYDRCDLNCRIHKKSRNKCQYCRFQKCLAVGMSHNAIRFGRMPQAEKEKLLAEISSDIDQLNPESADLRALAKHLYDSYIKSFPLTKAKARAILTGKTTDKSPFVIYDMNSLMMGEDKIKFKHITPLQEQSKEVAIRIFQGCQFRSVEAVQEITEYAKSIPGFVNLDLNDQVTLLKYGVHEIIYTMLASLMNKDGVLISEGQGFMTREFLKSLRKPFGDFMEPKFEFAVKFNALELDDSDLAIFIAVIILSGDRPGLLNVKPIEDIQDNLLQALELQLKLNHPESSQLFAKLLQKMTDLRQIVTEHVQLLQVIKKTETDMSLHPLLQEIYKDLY
Description: In vitro transactivation of human Peroxisome proliferator activated receptor gamma

Mus musculus [2] = test: In vivo nonfasting triglyceride in db/db mice after oral treatment; assay type: functional
[3] = target: T2, Peroxisome proliferator-activated receptor alpha (Rattus norvegicus) (UniProt P37230); test: (§1) In vitro transactivation of rat Peroxisome proliferator activated receptor alpha; design: concentration or dose not given beside the values
T2 sequence (whole entry): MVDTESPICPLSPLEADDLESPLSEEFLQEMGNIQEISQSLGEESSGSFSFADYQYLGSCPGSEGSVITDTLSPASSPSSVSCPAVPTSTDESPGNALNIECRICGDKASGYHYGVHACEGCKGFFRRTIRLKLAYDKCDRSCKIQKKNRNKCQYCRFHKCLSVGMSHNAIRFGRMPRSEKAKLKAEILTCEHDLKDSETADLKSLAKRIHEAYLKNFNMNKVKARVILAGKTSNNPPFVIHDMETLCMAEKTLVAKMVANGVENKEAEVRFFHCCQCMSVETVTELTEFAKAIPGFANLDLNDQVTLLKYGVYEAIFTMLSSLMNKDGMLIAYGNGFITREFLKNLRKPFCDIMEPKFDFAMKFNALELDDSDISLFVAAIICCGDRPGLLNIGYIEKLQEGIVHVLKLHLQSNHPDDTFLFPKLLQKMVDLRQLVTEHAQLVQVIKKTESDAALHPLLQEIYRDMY

[4] = target: T3, Peroxisome proliferator-activated receptor alpha (Homo sapiens, UniProt Q07869); test: (§2) In vitro transactivation of human Peroxisome proliferator activated receptor alpha (hPPARalpha)
T3 sequence (Q07869 whole entry): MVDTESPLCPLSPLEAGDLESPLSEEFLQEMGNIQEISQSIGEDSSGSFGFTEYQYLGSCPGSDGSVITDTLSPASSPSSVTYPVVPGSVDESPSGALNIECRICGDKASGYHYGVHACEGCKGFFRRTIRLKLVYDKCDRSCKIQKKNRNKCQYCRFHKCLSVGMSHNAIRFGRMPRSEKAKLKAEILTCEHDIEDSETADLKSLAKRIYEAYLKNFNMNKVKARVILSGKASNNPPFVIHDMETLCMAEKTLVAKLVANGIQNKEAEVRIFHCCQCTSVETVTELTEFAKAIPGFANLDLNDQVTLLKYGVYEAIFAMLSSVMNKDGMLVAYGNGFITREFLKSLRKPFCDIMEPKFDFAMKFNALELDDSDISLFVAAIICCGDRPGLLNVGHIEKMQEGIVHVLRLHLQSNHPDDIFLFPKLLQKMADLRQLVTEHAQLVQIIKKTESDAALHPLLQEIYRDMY

[5] = Volume of distribution during steady state in rat; settings: in vivo
[6] = target: T4, Peroxisome proliferator-activated receptor delta (Homo sapiens, UniProt Q03181); test: In vitro transactivation of human Peroxisome proliferator activated receptor delta (hPPARdelta)
T4 sequence (Q03181 whole entry): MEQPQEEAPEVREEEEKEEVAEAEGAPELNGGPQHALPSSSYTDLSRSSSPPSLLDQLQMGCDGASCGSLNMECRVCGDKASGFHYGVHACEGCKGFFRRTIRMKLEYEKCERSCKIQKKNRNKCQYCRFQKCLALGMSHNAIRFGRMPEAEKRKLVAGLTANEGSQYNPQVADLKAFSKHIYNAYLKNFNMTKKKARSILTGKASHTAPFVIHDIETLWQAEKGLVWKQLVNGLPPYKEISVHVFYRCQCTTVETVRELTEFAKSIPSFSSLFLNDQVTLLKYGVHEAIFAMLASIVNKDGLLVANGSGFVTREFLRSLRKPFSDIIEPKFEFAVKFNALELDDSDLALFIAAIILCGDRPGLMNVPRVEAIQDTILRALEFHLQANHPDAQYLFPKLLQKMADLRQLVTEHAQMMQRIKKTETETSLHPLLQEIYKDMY

[7] = target: T5, Peroxisome proliferator-activated receptor alpha (Homo sapiens) (UniProt Q07869); test: as §2; design: concentration or dose not given beside the values
T5 sequence (whole entry): T3 sequence (Q07869 whole entry)

Mus musculus [8] = test: In vivo insulin effect in db/db mice after oral treatment; assay type: functional
[9] = Area under the plasma concentration-time curve in rat after peroral administration; assay type: ADME, organism-based; settings: po
[10] = target: T6, Peroxisome proliferator-activated receptor alpha (Rattus norvegicus, UniProt P37230); test: as §1
T6 sequence (P37230 whole entry): T2 sequence (whole entry)

[11] = Partition coefficient (logP); assay type: physicochemical; settings: octanol/water
Mus musculus [12] = test: In vivo nonfasting blood glucose in db/db mice after oral treatment; assay type: functional
[13] = Oral bioavailability in rat; assay type: ADME, organism-based; settings: in vivo
[14] = Oral half-life in rat after peroral administration; assay type: ADME, organism-based; settings: in vivo
Mus musculus [15] = organism: Mus musculus; test: Area under blood glucose time curve after oral glucose test in mice; assay type: functional
[16] = Clearance in rat; assay type: ADME, organism-based; settings: in vivo
[17] = Maximum plasma concentration in rat after peroral administration; assay type: ADME, organism-based; design: route oral; settings: po

CCO[C@@H](Cc1ccc(OC/C=C/C#Cc2ccccc2)cc1)C(=O)O
EC50 [1]: 1.13 µM
ED50 (Mus musculus [2]): 0.4 mg/kg
Max reduction (Mus musculus [2]): 57%
Fold activation [3]: 112%
EC50 [4]: 0.067 µM
Vd [5]: 0.14 L/kg
EC50 [6]: 6.9 µM
Fold activation [7]: 123%
ED50 (Mus musculus [8]): 1 mg/kg
Max reduction (Mus musculus [8]): 92%
AUC [9]: 62200 ng·h/mL
EC50 [10]: 0.7 µM
logP [11]: 3.87
ED50 (Mus musculus [12]): 0.4 mg/kg
Max reduction (Mus musculus [12]): 54%
bioavailability [13]: 89%
half-life [14]: 2.03 h
Max reduction (Mus musculus [15]): 45%
ED50 (Mus musculus [15]; Mus musculus, Blood, po): 1.2 mg/kg
clearance [16]: 0.54 mL/min/kg
Cmax [17]: 4570 ng/mL

CCO[C@@H](Cc1ccc(OC/C=C/C#Cc2ccc(C#C/C=C/COc3ccc(C[C@H](OCC)C(=O)O)cc3)cc2)cc1)C(=O)O
EC50 [1]: 0.11 µM
ED50 (Mus musculus [2]): 0.2 mg/kg
Max reduction (Mus musculus [2]): 56%
Fold activation [3]: 210%
EC50 [4]: 0.71 µM
Vd [5]: 0.04 L/kg
EC50 [6]: 2.17 µM
Fold activation [7]: 173%
ED50 (Mus musculus [8]): 0.4 mg/kg
Max reduction (Mus musculus [8]): 90%
AUC [9]: 111000 ng·h/mL
EC50 [10]: 6.3 µM
logP [11]: 4.81
ED50 (Mus musculus [12]): 0.4 mg/kg
Max reduction (Mus musculus [12]): 55%
bioavailability [13]: 100%
half-life [14]: > 6 h
Max reduction (Mus musculus [15]): 52%
ED50 (Mus musculus [15]; Mus musculus, Blood, po): 0.9 mg/kg
clearance [16]: 0.1 mL/min/kg
Cmax [17]: 27800 ng/mL

CCO[C@@H](Cc1ccc(OC/C=C(\C)c2ccc(-c3ccc(/C(C)=C/COc4ccc(C[C@H](OCC)C(=O)O)cc4)cc3)cc2)cc1)C(=O)O
EC50 [1]: 0.32 µM
ED50 (Mus musculus [2]): 0.3 mg/kg
Max reduction (Mus musculus [2]): 60%
Fold activation [3]: 203%
EC50 [4]: 6.69 µM
Vd [5]: 0.08 L/kg
EC50 [6]: 2.08 µM
Fold activation [7]: 247%
ED50 (Mus musculus [8]): 0.2 mg/kg
Max reduction (Mus musculus [8]): 91%
AUC [9]: 9790 ng·h/mL
EC50 [10]: 19.9 µM
logP [11]: 4.89
ED50 (Mus musculus [12]): 0.2 mg/kg
Max reduction (Mus musculus [12]): 40%
bioavailability [13]: 58%
half-life [14]: > 6.67 h
Max reduction (Mus musculus [15]): 53%
ED50 (Mus musculus [15]; Mus musculus, Blood, po): 0.4 mg/kg
clearance [16]: 0.04 mL/min/kg
Cmax [17]: 23200 ng/mL

CCc1ccc(CCOc2ccc(CC3SC(=O)NC3=O)cc2)nc1 (stereo not drawn) [PIOGLITAZONE]
ED50 (Mus musculus [2]): 27 mg/kg
Max reduction (Mus musculus [2]): 21%
ED50 (Mus musculus [8]): 15 mg/kg
Max reduction (Mus musculus [8]): 54%
ED50 (Mus musculus [12]): 2.6 mg/kg
Max reduction (Mus musculus [12]): 53%
Max reduction (Mus musculus [15]): 39%
ED50 (Mus musculus [15]; Mus musculus, Blood, po): 12 mg/kg

CCO[C@@H](Cc1ccc(OC/C=C/C#Cc2cccc(C#C/C=C/COc3ccc(C[C@H](OCC)C(=O)O)cc3)c2)cc1)C(=O)O
EC50 [1]: 1.65 µM
ED50 (Mus musculus [2]): 0.1 mg/kg
Max reduction (Mus musculus [2]): 46%
Fold activation [3]: 109%
EC50 [4]: 0.3 µM
Vd [5]: 0.16 L/kg
EC50 [6]: 10.5 µM
Fold activation [7]: 193%
ED50 (Mus musculus [8]): 0.6 mg/kg
Max reduction (Mus musculus [8]): 86%
AUC [9]: 84900 ng·h/mL
EC50 [10]: 4.6 µM
logP [11]: 4.81
ED50 (Mus musculus [12]): 0.9 mg/kg
Max reduction (Mus musculus [12]): 54%
bioavailability [13]: 63%
half-life [14]: 6.7 h
Max reduction (Mus musculus [15]): 60%
ED50 (Mus musculus [15]; Mus musculus, Blood, po): 0.5 mg/kg
clearance [16]: 0.23 mL/min/kg
Cmax [17]: 7210 ng/mL

Cc1cccc(Nc2cc(Cl)nc(SCC(=O)O)n2)c1C [PIRINIXIC ACID]
ED50 (Mus musculus [2]): 3 mg/kg
Max reduction (Mus musculus [2]): 32%
ED50 (Mus musculus [8]): 15 mg/kg
Max reduction (Mus musculus [8]): 45%
EC50 [10]: 2.1 µM
ED50 (Mus musculus [12]): 2.2 mg/kg
Max reduction (Mus musculus [12]): 36%
ED50 (Mus musculus [15]): 4.7 mg/kg
Max reduction (Mus musculus [15]): 13%

CCCCC[C@H](O)/C=C/[C@@H]1[C@H]2C/C(=C\CCCC(=O)O)C[C@H]2C[C@H]1O [CARBACYCLIN]
EC50 [1]: 7.91 µM
Fold activation [3]: 15%
EC50 [4]: 0.96 µM
EC50 [6]: 1.88 µM
Fold activation [7]: 79%

CC(C)(Oc1ccc(C(=O)c2ccc(Cl)cc2)cc1)C(=O)O [FENOFIBRIC ACID]
ED50 (Mus musculus [2]): > 300 mg/kg
Max reduction (Mus musculus [2]): 20%
Fold activation [3]: 331%
EC50 [4]: 32.1 µM
Fold activation [7]: 265%
ED50 (Mus musculus [8]): 191 mg/kg
Max reduction (Mus musculus [8]): 32%
EC50 [10]: 131 µM
logP [11]: 4.27
ED50 (Mus musculus [12]): > 300 mg/kg
Max reduction (Mus musculus [12]): 10%
Max reduction (Mus musculus [15]): 0%
ED50 (Mus musculus [15]; Mus musculus, Blood, po): > 300 mg/kg

CCO[C@@H](Cc1ccc(OC/C=C(\C)c2ccc(-c3ccccc3)cc2)cc1)C(=O)O
EC50 [1]: 2.03 µM
ED50 (Mus musculus [2]): 0.3 mg/kg
Max reduction (Mus musculus [2]): 65%
Fold activation [3]: 166%
EC50 [4]: 0.49 µM
Vd [5]: 0.16 L/kg
EC50 [6]: 9.55 µM
Fold activation [7]: 158%
ED50 (Mus musculus [8]): 0.2 mg/kg
Max reduction (Mus musculus [8]): 95%
AUC [9]: 116000 ng·h/mL
EC50 [10]: 11.1 µM
logP [11]: 4.5
ED50 (Mus musculus [12]): 0.2 mg/kg
Max reduction (Mus musculus [12]): 53%
bioavailability [13]: 100%
half-life [14]: 3.55 h
Max reduction (Mus musculus [15]): 50%
ED50 (Mus musculus [15]; Mus musculus, Blood, po): 0.3 mg/kg
clearance [16]: 0.49 mL/min/kg
Cmax [17]: 9250 ng/mL

CN(CCOc1ccc(CC2SC(=O)NC2=O)cc1)c1ccccn1 (stereo not drawn) [ROSIGLITAZONE]
ED50 (Mus musculus [2]): 0.1 mg/kg
Max reduction (Mus musculus [2]): 58%
ED50 (Mus musculus [8]): 0.1 mg/kg
Max reduction (Mus musculus [8]): 43%
AUC [9]: 14600 ng·h/mL
logP [11]: 1.91
ED50 (Mus musculus [12]): 0.9 mg/kg
Max reduction (Mus musculus [12]): 35%
bioavailability [13]: 83%
half-life [14]: 3.03 h
Max reduction (Mus musculus [15]): 16%
ED50 (Mus musculus [15]; Mus musculus, Blood, po): 0.8 mg/kg
clearance [16]: 2.1 mL/min/kg
